The results in this text go back to patent US12377107B2, “NT5C2 inhibitors for the treatment of chemotherapy-resistant acute lymphoblastic leukemia” (THE TRUSTEES OF COLUMBIA UNIVERSITY IN THE CITY OF NEW YORK, priority 2019, dated 2025).

The structures appear in SMILES notation.

Data set [1] deals with NT5C2 (Homo sapiens, UniProt P49902, R367Q). Put plainly: NT5C2 inhibition test (malachite green based assay detecting free inorganic phosphate). The class given is biochemical.
Data set [2] in a line: Dissolution of compound for NT5C2 inhibition test. The class given is physicochemical.
The subject of data set [3] is NT5C2 R367Q mutant mouse lymphoblasts. Description: Cell viability of NT5C2 R367Q mutant mouse lymphoblasts in combination with 6-MP. The class given is cell-based. The conditions noted are these: for synergy with 6-MP to decrease cell viability: combination with 6-mercaptopurine, dose-dependent. An excerpt:
Various embodiments relate to the synthesis and characterization of NT5C2 inhibitors, HTP47 and HTP48, for treatment of chemotherapy resistant T-ALL.
[drawing 5] • to decrease cell viability of NT5C2 R367Q mutant mouse lymphoblasts. As such, various embodiments may be used in combination with existing chemotherapies to treat T-ALL and relapsed T-ALL.
Various embodiments relate to ongoing in vitro and in vivo functional characterization and development of optimized inhibitors. […] Control experiment were performed for dose optimization of HTP47 and HTP48 in C2-2 NT5C2 WT mouse lymphoblasts. […] Synthesis reactions for HTP47 and HTP48 are also provided.

Chain of NT5C2 (P49902 whole entry R367Q): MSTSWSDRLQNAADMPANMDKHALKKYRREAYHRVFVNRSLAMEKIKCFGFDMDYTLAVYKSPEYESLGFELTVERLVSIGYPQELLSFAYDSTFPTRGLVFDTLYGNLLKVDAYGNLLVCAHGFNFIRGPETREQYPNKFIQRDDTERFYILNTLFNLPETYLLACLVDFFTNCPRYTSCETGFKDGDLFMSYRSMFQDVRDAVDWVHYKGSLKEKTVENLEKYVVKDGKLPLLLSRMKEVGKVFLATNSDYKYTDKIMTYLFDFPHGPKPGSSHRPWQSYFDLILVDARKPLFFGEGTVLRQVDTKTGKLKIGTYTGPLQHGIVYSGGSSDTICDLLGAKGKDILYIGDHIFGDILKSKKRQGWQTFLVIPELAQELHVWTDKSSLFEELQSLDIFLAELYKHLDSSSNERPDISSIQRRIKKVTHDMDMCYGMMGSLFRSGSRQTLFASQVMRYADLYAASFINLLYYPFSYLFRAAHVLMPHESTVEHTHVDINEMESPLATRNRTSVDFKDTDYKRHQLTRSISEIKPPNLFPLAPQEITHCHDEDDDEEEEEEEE

`CC1(CO)CCN(C(=O)c2c[nH]c(=O)c3ccccc23)CC1` [Formula 35]: the NT5C2 inhibitory activity entry in data set [1] (assay format not given) was “no NT5C2 inhibition activity”. The same measure, in the same setting: the entry for `CCC1(CC)CCN(C(=O)c2c[nH]c(=O)c3ccccc23)CC1` [Formula 36] is “no NT5C2 inhibition activity”.

With `CNC1CCN(C(=O)c2c[nH]c(=O)c3ccccc23)CC1` [Formula 37], the NT5C2 inhibitory activity result in data set [1] (assay format not given) was “no NT5C2 inhibition activity”. `CC(C)CCNC(=O)c1c[nH]c(=O)c2ccccc12` [Formula 38]: the dissolution result in data set [2] was “did not dissolve”. Moreover, the NT5C2 inhibitory activity entry in data set [1] (assay format not given) is recorded as “no NT5C2 inhibition activity was observed”. With `NCC1CCCN(C(=O)c2c[nH]c(=O)c3ccccc23)C1` (centres unmarked) [Formula 39], in data set [1] (assay format not given), the NT5C2 inhibitory activity entry is listed as “no NT5C2 inhibition activity”. As for `NC(=O)c1c(NC(=O)c2ccc3[nH]cnc3c2)sc2c1CCCC2` [HTP2], the NT5C2 inhibitory activity result was “have NT5C2 inhibitory activity” in data set [1] (assay format not given) and “NT5C2 inhibitory activity” in data set [1] (malachite green based assay). `N#Cc1c(NC(=O)c2ccc3[nH]cnc3c2)sc2c1CCCC2` [HTP22]: the NT5C2 inhibitory activity result in data set [1] (assay format not given) is “have NT5C2 inhibitory activity”.

On to `NC(=O)c1c(NC(=O)c2ccc3[nH]cnc3c2)sc2c1CCC2` [HTP41], for which the NT5C2 inhibitory activity entry in data set [1] (assay format not given) is recorded as “have NT5C2 inhibitory activity”. As to `Cc1nc2nc(C(=O)Nc3sc4c(c3C(N)=O)CCCC4)ccc2[nH]1` [HTP47], in data set [3] (combination with 6-MP), the “potency of 6-MP in combination, comparison of HTP47 and HTP48” value was “greater potency of 6-MP in combination with HTP47 compared to HTP48”. Besides, the “synergy with 6-MP to decrease cell viability” value in data set [3] is recorded as “act synergistically with 6-MP in a dose-dependent manner”. For the same compound, the NT5C2 inhibitory activity entry was “have NT5C2 inhibitory activity” in data set [1] (assay format not given) and “NT5C2 inhibitory activity” in data set [1] (malachite green based assay). Take `Cn1cnc2cc(C(=O)Nc3sc4c(c3C(N)=O)CCCC4)ccc21` [HTP48]: the “synergy with 6-MP to decrease cell viability” value in data set [3] is “act synergistically with 6-MP in a dose-dependent manner”. Also, the NT5C2 inhibitory activity entry was “have NT5C2 inhibitory activity” in data set [1] (assay format not given) and “NT5C2 inhibitory activity” in data set [1] (malachite green based assay).
